The data set can be described thus: gradient 5% acetonitrile 3 min, to 50% in 2 min, to 85% in 15 min, held 3 min, 100 µL/min. The conditions noted are these: column: Zorbax Extend-C18 2.1 x 50 mm; eluents: water / acetonitrile, 0.1% formic acid. The gist of the method:
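The mobile phases were water and acetonitrile, each with 0.1% formic acid, pumped at 100 μL/min through a Zorbax Extend-C18 column (2.1 × 50 mm, 1.8 μm). Pure standards were injected as mixtures of ~100 molecules and detected by a quadrupole time-of-flight mass spectrometer in positive and negative ionization mode. Retention time came from computationally picked adduct peaks, each inspected by hand.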
For `O=C(c1ccncc1)N1CCc2c([nH]c3ccccc23)C1c1ccccc1` (stereo not given), the RP-LC retention time amounted to 862 s. The result for `O=C(NCC1CCCO1)N1CCCn2nc(-c3ccncc3)cc2C1` (stereo not given) reads 551 s.

The compound `CCN1CCC(N(Cc2ccc3c(c2)OCO3)C(=O)Nc2ccc(F)cc2)CC1` yielded an RP-LC retention time of 656 s. The result for `COc1ccc(-n2ccc(=O)c(-c3nc(-c4ccc(Br)cc4)no3)n2)cc1` reads 984 s; that for `COc1ccc(CCNS(=O)(=O)c2c(N)n(C)c(=O)n(C)c2=O)cc1OC`, 605 s. In turn, `CC(C)CNC(=O)c1ccc(-c2nc3cccnc3n2C2CCCCC2)cc1` came in with an RP-LC retention time of 926 s. For `CCn1c(=O)n(CC)c2cc(S(=O)(=O)c3ccccc3)c(NC(C)=O)cc21` the value was 715 s; for `O=C(c1cccc(Cl)c1)N1CCc2nc(-c3ccc(Cl)cc3)ncc2C1`, 1140 s; for `O=C(CCc1nnn2c1CN(C(=O)C1CCCC1)CC2)N1CCOCC1`, 616 s. `CC(C)CN1CCCCc2cc(C(=O)NC3CCS(=O)(=O)C3)sc21` (stereo not given) had an RP-LC retention time of 941 s. For `CCOC(=O)[C@H](C)C[C@@H](Cc1ccc(-c2ccccc2)cc1)NC(=O)CCC(=O)O` the value was 1010 s.

In turn, `CCCNc1cc(N2CCCC(CCC(=O)Nc3ccccc3)C2)ncn1` (stereo not given) yielded an RP-LC retention time of 703 s. The result for `Cc1cccc(-c2ncccc2CNS(=O)(=O)c2ccc(Cl)cc2)c1` reads 778 s; that for `CCCNC(=O)CN1C(=O)C2CCCCN2c2ccc(S(=O)(=O)N(CC)CC)cc21` (stereo not given), 862 s. The result for `O=C(Nc1ccc(F)cc1F)N1CCC(N2CCN(Cc3ccccc3)C(=O)C2=O)CC1` reads 681 s; that for `COc1cc(NC(=O)CCSc2ccccc2)c2ncccc2c1`, 1060 s; that for `Cc1c(-c2noc(-c3ccccc3)n2)nnn1Cc1ccccc1`, 1060 s.

For the compound `Cn1c(N2CCCN(C(=O)c3ccc(Br)o3)CC2)cc(=O)n(C)c1=O`, the RP-LC retention time is 653 s. The compound `O=C(c1cc(=O)c2ccccc2o1)N1CCC(c2nnc(-c3ccc(F)cc3)o2)CC1` gave an RP-LC retention time of 746 s.

`O=C(Nc1cccc(F)c1)c1c(O)c2cccnc2n(-c2cccc(F)c2)c1=O` registered an RP-LC retention time of 723 s.

Regarding `COc1ccc(C(=O)Nc2nc(CC(=O)NCc3cccs3)cs2)cc1`, the RP-LC retention time was 739 s. Turning to `COc1ccc(C(=O)N2CCC3(CC2)N=C(c2ccc(Cl)cc2)NO3)cc1OC`, the RP-LC retention time came to 784 s. As for `CCCN1C(=O)C(C)(C(=O)NCc2ccccc2Cl)Oc2cccnc21` (stereo not given), the RP-LC retention time amounted to 942 s. The result for `Cc1cc(C)cc(-c2nc(C3CC(=O)N(c4ccc(F)c(Cl)c4)C3)no2)c1` (stereo not given) reads 1050 s; that for `CCc1nn2c(CNC(=O)c3ccc(F)c(Cl)c3)c(-c3ccccc3)nc2s1`, 1020 s; that for `CCCCn1nc(-c2nc(-c3ccc(F)cc3)no2)ccc1=O`, 1100 s.

In turn, `O=C(O)c1ccc(Nc2c3ccccc3nc3ccccc23)cc1` gave an RP-LC retention time of 629 s. Compound `CCOc1ccc(-c2nc(-c3ccc4ncn(CC)c4c3)no2)cc1` gave an RP-LC retention time of 829 s. For `Cc1ccc(F)c(-n2nnc(C(=O)O)c2-c2ccncc2)c1` the value was 654 s. Compound `CCCn1cc(CCNC(=O)Nc2ccc(Cl)cc2F)c2cccnc21` showed an RP-LC retention time of 876 s. For `COc1cccc(-c2nc(-c3ccc4c(c3)ncn4CCN3CCCC3)no2)c1OC` the value was 643 s; for `CCOc1ccc(C2Cn3nnc(-c4nc(-c5cccc(Cl)c5)no4)c3CO2)cc1` (stereo not given), 1320 s.

Turning to `COc1ccc(C(=O)N2C[C@@H]3C[C@H](NC(=O)c4cccnc4)[C@H]2C3)c(OC)c1`, the RP-LC retention time was 605 s.

Compound `COc1ccc(Br)cc1C1C(C(=O)N2CCOCC2)=C(C)NC2=C1C(=O)CC(C)(C)C2` (stereo not given) came in with an RP-LC retention time of 683 s. The result for `CC1CN(C2CCCCC2)c2nc3c(c(=O)n(CCN4CCOCC4)c(=O)n3C)n2C1` (stereo not given) reads 662 s; that for `CCOC(=O)c1[nH]c(C)c(CCC(=O)N2CCC(C(=O)NC3CCCCC3)CC2)c1C`, 778 s. The result for `CCN(CCCNC(=O)C1CCN(c2nccc3c(C)nn(C)c23)CC1)c1ccccc1` reads 574 s.

On to `CC(=O)Nc1nc(-c2ccc3c(c2)NC(=O)CO3)cs1`, for which the RP-LC retention time was found to be 633 s. The compound `O=C(c1cc(S(=O)(=O)N2CCCC(C(=O)N3CCc4ccccc43)C2)c[nH]1)N1CCCCCC1` (stereo not given) displayed an RP-LC retention time of 949 s. As to `Cc1ccccc1NS(=O)(=O)c1cc(-c2[nH]ncc2C(=O)N2CCCC2)oc1C`, the RP-LC retention time came out at 700 s.

`COC(=O)c1ccc(N2C=C(C(=O)N3CCCC3)S(=O)(=O)c3ccc(Cl)cc32)cc1` returned an RP-LC retention time of 842 s. For `Cc1cccc(C)c1NC(=O)N(C)CC1CCOC1` (stereo not given), the RP-LC retention time stood at 666 s. The result for `CCOc1ccccc1-c1noc(Cn2c(=O)n(-c3cccc(F)c3)c(=O)c3sccc32)n1` reads 967 s; that for `COc1ccc(-n2ccn3cc(-c4ccccc4)nc3c2=O)cc1Cl`, 873 s. With `Fc1ccc(Cn2cc(-c3noc(C4CCCC4)n3)nn2)cc1`, the RP-LC retention time was 991 s. Consider `O=C(Cn1cnc2c(-c3ccc(F)cc3)csc2c1=O)Nc1ccc(Br)cc1F`, for which the RP-LC retention time was 1030 s.

Turning to `O=C(Cn1cnc(-c2cccs2)cc1=O)NCCOc1ccc(-c2ccco2)nn1`, the RP-LC retention time amounted to 583 s. `COc1ccc2c(c1)CCN(C(=O)c1csc(-n3cccc3)n1)C2` registered an RP-LC retention time of 895 s. The result for `COc1ccc(Br)cc1CNC(=O)CN1C(=O)CSc2ncccc21` reads 756 s; that for `Cn1c(SCC(=O)N2CCC(C(N)=O)CC2)nnc1-c1sc2ncccc2c1N`, 577 s. On to `CC(NC(=O)c1ccco1)c1nc(-c2ccc(N3CCCCC3)cc2)no1` (stereo not given), for which the RP-LC retention time was 859 s. Regarding `N#Cc1ccc(C(=O)Nc2cccnc2N2CCCC2)cc1`, the RP-LC retention time turned out to be 583 s. `O=C(c1ccco1)N1CCCC1c1nc(-c2ccccc2)no1` (stereo not given) showed an RP-LC retention time of 853 s. The result for `CN1C(=O)C(C)(C)COc2cc(NC(=O)CCSc3ccccc3)ccc21` reads 882 s. The result for `Cc1ccc(Nc2c(-c3cccc(Cl)c3)nc3cc(C)ccn23)cc1` reads 890 s; that for `COc1ccc(NC(=O)N2CCC3(CC2)NC(=O)c2ccccc2O3)c(OC)c1`, 728 s; that for `Cc1ccc(-c2noc(C3CC(=O)N(c4ccccc4Cl)C3)n2)cc1` (stereo not given), 1010 s. The result for `COCCNC(=O)Cn1nc(C)c2c(C)n(-c3ccccc3)nc2c1=O` reads 649 s.

`CNC(=O)c1cccn1Cc1ccc(F)cc1` showed an RP-LC retention time of 791 s.

On to `CCCN(CCC)C(=O)Cn1c(CN(C)C(C)=O)nc2ccccc21`, for which the RP-LC retention time is 630 s.
